# The source made the active and inactive calls. No cut-off for these calls is given here.
# Key:
# Mus musculus [1] = assay: Anticonvulsant activity in Swiss albino Mus musculus (mouse) assessed as protection against maximal electroshock-induced seizures at 300 mg/kg, ip after 4 hr; format: functional, organism-based; parameters: dose 300 mg/kg
# Mus musculus [2] = assay: Anticonvulsant activity in Swiss albino Mus musculus (mouse) assessed as protection against subcutaneous pentylenetetrazole-induced seizure at 100 mg/kg, ip after 0.5 hr; format: functional, organism-based; parameters: dose 100 mg/kg
# Mus musculus [3] = assay: Neurotoxicity in Swiss albino Mus musculus (mouse) assessed as minimal motor impairment at 300 mg/kg, ip after 0.5 hr by rotorod test; format: toxicity, organism-based; parameters: dose 300 mg/kg, route intraperitoneal; conditions: in vivo
# Mus musculus [4] = assay: Anticonvulsant activity in Swiss albino Mus musculus (mouse) assessed as protection against maximal electroshock-induced seizures at 300 mg/kg, ip after 0.5 hr; format: functional, organism-based; parameters: dose 300 mg/kg
# Mus musculus [5] = assay: Neurotoxicity in Swiss albino Mus musculus (mouse) assessed as minimal motor impairment at 300 mg/kg, ip after 4 hr by rotorod test; format: toxicity, organism-based; parameters: dose 300 mg/kg, route intraperitoneal; conditions: in vivo
# Mus musculus [6] = assay: Anticonvulsant activity in Swiss albino Mus musculus (mouse) assessed as protection against subcutaneous pentylenetetrazole-induced seizure at 300 mg/kg, ip after 4 hr; format: functional, organism-based; parameters: dose 300 mg/kg
# Rattus norvegicus [7] = assay: Anticonvulsant activity in Wistar Rattus norvegicus (rat) assessed as protection against maximal electroshock-induced seizures at 30 mg/kg, po after 4 hr; format: functional
# Mus musculus [8] = assay: Anticonvulsant activity in Swiss albino Mus musculus (mouse) assessed as protection against maximal electroshock-induced seizures at 30 mg/kg, ip after 0.5 hr; format: functional, organism-based; parameters: dose 30 mg/kg
# Rattus norvegicus [9] = assay: Anticonvulsant activity in Wistar Rattus norvegicus (rat) assessed as protection against maximal electroshock-induced seizures at 30 mg/kg, po after 0.5 hr; format: functional
# Rattus norvegicus [10] = assay: Anticonvulsant activity in Wistar Rattus norvegicus (rat) assessed as protection against maximal electroshock-induced seizures at 30 mg/kg, po after 1 hr; format: functional
# Mus musculus [11] = assay: Anticonvulsant activity in Swiss albino Mus musculus (mouse) assessed as protection against maximal electroshock-induced seizures at 100 mg/kg, ip after 4 hr; format: functional, organism-based; parameters: dose 100 mg/kg
# Rattus norvegicus [12] = assay: Anticonvulsant activity in Wistar Rattus norvegicus (rat) assessed as protection against maximal electroshock-induced seizures at 30 mg/kg, po after 2 hr; format: functional
# Rattus norvegicus [13] = assay: Neurotoxicity in Wistar Rattus norvegicus (rat) assessed as minimal motor impairment at 30 mg/kg, po after 0.25 to 4 hr by rotorod test; format: toxicity, organism-based; parameters: dose 30 mg/kg, route oral; conditions: in vivo
# Rattus norvegicus [14] = assay: Anticonvulsant activity in Wistar Rattus norvegicus (rat) assessed as protection against maximal electroshock-induced seizures at 30 mg/kg, po after 0.25 hr; format: functional
# Mus musculus [15] = assay: Anticonvulsant activity in Swiss albino Mus musculus (mouse) assessed as protection against subcutaneous pentylenetetrazole-induced seizure at 300 mg/kg, ip after 0.5 hr; format: functional, organism-based; parameters: dose 300 mg/kg
# Mus musculus [16] = assay: Anticonvulsant activity in Swiss albino Mus musculus (mouse) assessed as protection against maximal electroshock-induced seizures at 100 mg/kg, ip after 0.5 hr; format: functional, organism-based; parameters: dose 100 mg/kg
# Mus musculus [17] = assay: Anticonvulsant activity in Swiss albino Mus musculus (mouse) assessed as protection against maximal electroshock-induced seizures at 30 mg/kg, ip after 4 hr; format: functional, organism-based; parameters: dose 30 mg/kg
# Mus musculus [18] = assay: Neurotoxicity in Swiss albino Mus musculus (mouse) assessed as minimal motor impairment at 100 mg/kg, ip after 4 hr by rotorod test; format: toxicity, organism-based; parameters: dose 100 mg/kg, route intraperitoneal; conditions: in vivo
# Mus musculus [19] = assay: Neurotoxicity in Swiss albino Mus musculus (mouse) assessed as minimal motor impairment at 100 mg/kg, ip after 0.5 hr by rotorod test; format: toxicity, organism-based; parameters: dose 100 mg/kg, route intraperitoneal; conditions: in vivo
# Mus musculus [20] = assay: Anticonvulsant activity in Swiss albino Mus musculus (mouse) assessed as protection against subcutaneous pentylenetetrazole-induced seizure at 30 to 300 mg/kg, ip after 0.5 hr; format: functional, organism-based
Compound,Activity (Mus musculus [1]),Activity (Mus musculus [2]),Activity (Mus musculus [3]),Activity (Mus musculus [4]),Activity (Mus musculus [5]),Activity (Mus musculus [6]),Activity (Rattus norvegicus [7]) [%],Activity (Mus musculus [8]),Activity (Rattus norvegicus [9]) [%],Activity (Rattus norvegicus [10]) [%],Activity (Mus musculus [11]),Activity (Rattus norvegicus [12]) [%],Activity (Rattus norvegicus [13]),Activity (Rattus norvegicus [14]) [%],Activity (Mus musculus [15]),Activity (Mus musculus [16]),Activity (Mus musculus [17]),Activity (Mus musculus [18]),Activity (Mus musculus [19]),Activity (Mus musculus [20])
CCC1(C)CC(=O)NC1=O (configuration not stated) [ETHOSUXIMIDE],inactive,Active,Non-toxic,inactive,Non-toxic,Active,,,,,,,,,,,,,,
Cc1nc2c(Br)cc(Br)cc2c(=O)n1-c1ccc(C(=O)N2N=C(c3ccccc3)CC2c2ccc(Cl)cc2)cc1 (configuration not stated),,Active,Non-toxic,,Non-toxic,Active,100,Active,50,50,Active,100,Non-toxic,25,,,,,,
Cc1nc2ccccc2c(=O)n1-c1ccc(C(=O)N2N=C(c3ccccc3)CC2c2cccc([N+](=O)[O-])c2)cc1 (configuration not stated),inactive,,,inactive,,Active,,,,,,,,,inactive,,,,,
Cc1ccc(C2CC(c3ccccc3)=NN2C(=O)c2ccc(-n3c(-c4ccccc4)nc4ccccc4c3=O)cc2)cc1 (configuration not stated),inactive,,,Active,,inactive,,,,,,,,,inactive,,,,,
COc1ccc(C2CC(c3ccccc3)=NN2C(=O)c2ccc(-n3c(-c4ccccc4)nc4ccccc4c3=O)cc2)cc1 (configuration not stated),Active,,,inactive,,Active,,,,,,,,,inactive,,,,,
Cc1nc2c(Br)cc(Br)cc2c(=O)n1-c1ccc(C(=O)N2N=C(c3ccccc3)CC2c2ccc(N(C)C)cc2)cc1 (configuration not stated),,,Toxic,,Toxic,inactive,0,Active,50,25,Active,0,Non-toxic,0,Active,,,,,
O=C(c1ccc(-n2c(-c3ccccc3)nc3ccccc3c2=O)cc1)N1N=C(c2ccccc2)CC1c1ccc(Cl)cc1 (configuration not stated),Active,,Non-toxic,,Toxic,inactive,,,,,,,,,Active,Active,,,,
O=C1NC(=O)C(c2ccccc2)(c2ccccc2)N1 [PHENYTOIN],,,,,,inactive,75,Active,100,75,,75,Non-toxic,25,inactive,,Active,Toxic,Toxic,
COc1ccc(C2CC(c3ccccc3)=NN2C(=O)c2ccc(-n3c(C)nc4c(Br)cc(Br)cc4c3=O)cc2)cc1 (configuration not stated),Active,,Toxic,,Toxic,inactive,,,,,,,,,Active,Active,,,,
Cc1ccc(C2CC(c3ccccc3)=NN2C(=O)c2ccc(-n3c(C)nc4c(Br)cc(Br)cc4c3=O)cc2)cc1 (configuration not stated),Active,,Non-toxic,,Toxic,Active,75,,50,50,,75,Non-toxic,25,,Active,,,,Active
Cc1nc2ccccc2c(=O)n1-c1ccc(C(=O)N2N=C(c3ccccc3)CC2c2ccc(Cl)cc2)cc1 (configuration not stated),,Active,Toxic,,Non-toxic,Active,75,Active,50,50,Active,75,Non-toxic,25,,,,,,
Cc1nc2c(Br)cc(Br)cc2c(=O)n1-c1ccc(C(=O)N2N=C(c3ccccc3)CC2c2cccc([N+](=O)[O-])c2)cc1 (configuration not stated),inactive,,,inactive,,Active,,,,,,,,,inactive,,,,,
Cc1nc2ccccc2c(=O)n1-c1ccc(C(=O)N2N=C(c3ccccc3)CC2c2ccc(O)cc2)cc1 (configuration not stated),Active,,,,Toxic,Active,100,Active,50,50,,100,Non-toxic,25,Active,,,,Toxic,
O=C(c1ccc(-n2c(-c3ccccc3)nc3ccccc3c2=O)cc1)N1N=C(c2ccccc2)CC1c1cccc([N+](=O)[O-])c1 (configuration not stated),inactive,,,inactive,,inactive,,,,,,,,,Active,,,,,
Cc1nc2ccccc2c(=O)n1-c1ccc(C(=O)N2N=C(c3ccccc3)CC2c2ccc(N(C)C)cc2)cc1 (configuration not stated),Active,Active,Non-toxic,,Non-toxic,Active,50,,0,0,,25,Non-toxic,0,,Active,,,,
Cc1nc2c(Br)cc(Br)cc2c(=O)n1-c1ccc(C(=O)N2N=C(c3ccccc3)CC2c2ccc(O)cc2)cc1 (configuration not stated),,,Toxic,,Non-toxic,Active,100,Active,50,50,Active,100,Non-toxic,25,Active,,,,,
CN(C)c1ccc(C2CC(c3ccccc3)=NN2C(=O)c2ccc(-n3c(-c4ccccc4)nc4ccccc4c3=O)cc2)cc1 (configuration not stated),Active,,,inactive,,inactive,,,,,,,,,inactive,,,,,
COc1ccc(C2CC(c3ccccc3)=NN2C(=O)c2ccc(-n3c(C)nc4ccccc4c3=O)cc2)cc1 (configuration not stated),inactive,,Non-toxic,,Toxic,inactive,,,,,,,,,Active,Active,,,,
Cc1ccc(C2CC(c3ccccc3)=NN2C(=O)c2ccc(-n3c(C)nc4ccccc4c3=O)cc2)cc1 (configuration not stated),Active,Active,Non-toxic,,Non-toxic,Active,75,,50,50,,75,Non-toxic,25,,Active,,,,
O=C(c1ccc(-n2c(-c3ccccc3)nc3ccccc3c2=O)cc1)N1N=C(c2ccccc2)CC1c1ccc(O)cc1 (configuration not stated),inactive,,Non-toxic,,Non-toxic,Active,,,,,,,,,inactive,Active,,,,

# Reference: ChEMBL document CHEMBL3045074, “Synthesis and anticonvulsant activity of novel quinazolin-4(3H)-one derived pyrazole analogs” (Med Chem Res, 2013)
